In ChEMBL document CHEMBL5120771, “Synthesis, equilibrium, and biological study of a C-7 glucose boronic acid derivative as a potential candidate for boron neutron capture therapy” (Bioorg Med Chem, 2022):

Key:
Fibroblast [1] = assay: Cytotoxicity against human fibroblasts assessed as reduction in cell viability at 0.01 to 3 mM measured after 72 hrs by MTT assay relative to control; type: toxicity, cell-based; conditions: 3000 µM, dose 0.01-3 mM
[2] = Drug uptake in human fibroblasts assessed as boron accumulation at 1 mM measured after 24 hrs per mg of cell pellet by ICP-MS analysis (reference value: 0.30 +/- 0.09 ng/mg); type: ADME, cell-based; conditions: fibroblast, 1000 µM
[3] = Drug uptake in human D54 cells assessed as boron accumulation at 1 mM measured after 2 hrs per mg of cell pellet by ICP-MS analysis (reference value: 0.15 +/- 0.19 ng/mg); type: ADME, cell-based; conditions: d54, 2 h, 1000 µM
D54 cell line = assay: Cytotoxicity against human D54 cells assessed as cell killing at 1 mM measured after 72 hrs by MTT assay; type: functional
Fibroblast [4] = assay: Cytotoxicity against human fibroblasts assessed as reduction in cell viability at 0.01 to 3 mM measured after 24 hrs by MTT assay; type: toxicity, cell-based; conditions: 3000 µM, dose 0.01-3 mM
[5] = Drug uptake in human D54 cells assessed as boron accumulation at 1 mM measured after 24 hrs per mg of cell pellet by ICP-MS analysis (reference value: 0.15 +/- 0.19 ng/mg); type: ADME, cell-based; conditions: d54, 24 h, 1000 µM

Drug uptake [2] [ng/mg] | Drug uptake [3] [ng/mg] | Drug uptake [5] [ng/mg] | SMILES | Activity (Fibroblast [1]) [%] | Activity (D54 cell line) [%] | Activity (Fibroblast [4])
– | – | – | N[C@@H](Cc1ccc(B(O)O)cc1)C(=O)O | -19 | – | –
0.85 | 3 | 6 | OB1CC[C@H]2OC(O)[C@H](O)[C@@H](O)[C@@H]2O1 (some centres not stated) | -10 | 15 | Non-Toxic
